Laboratory results taken from PubChem BioAssay (NCI).
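Grown in 96-well plates, cells were treated for 48 hours with each compound at five concentrations. Insufficient inhibition: endpoint recorded as highest concentration tested. Here, GI50 denotes the concentration required for 50% inhibition of growth. TGI is the concentration that stops growth completely.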

Assays:
Assay in all cases: DTP human tumour cell line panel, 48 h
RPMI-8226 leukemia = test system: RPMI-8226 leukemia
MALME-3M melanoma = test system: MALME-3M melanoma
SK-MEL-5 melanoma = test system: SK-MEL-5 melanoma
KM12 colon = test system: KM12 colon
OVCAR-3 ovarian = test system: OVCAR-3 ovarian
A549 NSCLC = test system: A549 NSCLC
A498 renal = test system: A498 renal
COLO 205 colon = test system: COLO 205 colon
SW-620 colon = test system: SW-620 colon
UACC-257 melanoma = test system: UACC-257 melanoma

| Compound | TGI (RPMI-8226 leukemia) | TGI (MALME-3M melanoma) | TGI (SK-MEL-5 melanoma) | TGI (KM12 colon) | TGI (OVCAR-3 ovarian) | TGI (A549 NSCLC) | TGI (A498 renal) | TGI (COLO 205 colon) | TGI (SW-620 colon) | TGI (UACC-257 melanoma) | GI50 (RPMI-8226 leukemia) | GI50 (MALME-3M melanoma) | GI50 (SK-MEL-5 melanoma) | GI50 (KM12 colon) | GI50 (OVCAR-3 ovarian) | GI50 (A549 NSCLC) | GI50 (A498 renal) | GI50 (COLO 205 colon) | GI50 (SW-620 colon) | GI50 (UACC-257 melanoma) |
| --- | --- | --- | --- | --- | --- | --- | --- | --- | --- | --- | --- | --- | --- | --- | --- | --- | --- | --- | --- | --- |
| COc1cc(C2(C)SCCCS2)c(I)c(OC)c1OC | > 100 µM | > 100 µM | > 100 µM | > 100 µM | > 100 µM | > 100 µM | > 100 µM | > 100 µM | > 100 µM | > 100 µM | – | – | – | – | – | – | – | – | – | – |
| O=C1OC(c2ccccc2)=N/C1=C/N1CCCC1C(=O)O (stereo not given) | > 100 µM | > 100 µM | > 100 µM | > 100 µM | > 100 µM | > 100 µM | > 100 µM | > 100 µM | > 100 µM | > 100 µM | – | – | – | – | – | – | – | – | – | – |
| COc1cccc2ccc3c(c12)C(=O)OC31CCc2c(C)cccc21 (stereo not given) | 21.5 µM | > 46.4 µM | 19.5 µM | > 100 µM | > 46.4 µM | > 46.4 µM | 22.7 µM | > 46.4 µM | > 46.4 µM | > 100 µM | – | – | – | – | – | – | – | – | – | – |
| O=C(/C=C/c1ccccc1)CCc1c(O)c2ccccc2oc1=O | > 100 µM | > 100 µM | > 100 µM | > 100 µM | > 100 µM | > 100 µM | > 100 µM | > 100 µM | > 100 µM | > 100 µM | – | – | – | – | – | – | – | – | – | – |
| C[C@@H](c1ccccc1)N(CC#N)C1CCC[C@H]1O (stereo not given in full) | > 100 µM | > 100 µM | > 100 µM | > 100 µM | > 100 µM | > 100 µM | > 100 µM | > 100 µM | > 100 µM | > 100 µM | – | – | – | – | – | – | – | – | – | – |
| C=C1C(=O)O[C@H]2[C@H]1CC/C(COC(=O)/C=C/c1c[nH]c3ccccc13)=C\CC[C@@]1(C)O[C@@H]21 | 0.123 µM | 0.828 µM | 0.516 µM | 1.64 µM | 0.37 µM | 2.71 µM | 1.13 µM | 0.541 µM | 0.446 µM | 1.46 µM | 0.0332 µM | 0.283 µM | 0.208 µM | 0.402 µM | 0.173 µM | 1.27 µM | 0.278 µM | 0.225 µM | 0.181 µM | 0.354 µM |
| N#CC1CCc2c(c(-c3cn[nH]c3C(F)(F)F)nc3c(F)cc4[nH]ncc4c23)C1 (stereo not given) | 78.1 µM | 11.5 µM | 9.79 µM | 41.9 µM | 42.6 µM | > 100 µM | 6.75 µM | 16.1 µM | 38 µM | 74.5 µM | 8.4 µM | 3.31 µM | 2.83 µM | 3.34 µM | 4.89 µM | 21.2 µM | 2.09 µM | 4.23 µM | 3.47 µM | 12.9 µM |
| O=C1C2=C(c3ccccc31)C(c1ccc(F)cc1)N1C(=O)CCSC1=N2 (stereo not given) | > 100 µM | > 100 µM | > 100 µM | > 100 µM | > 100 µM | > 100 µM | > 100 µM | > 100 µM | > 100 µM | > 100 µM | – | – | – | – | – | – | – | – | – | – |
| O=C(Nc1ccccc1C(=O)O)C(=O)C(C(=O)c1ccccc1-c1ccccc1)C1OC(=O)c2ccccc21 (stereo not given) | 98.2 µM | 28.6 µM | 33.9 µM | 33.6 µM | 34.3 µM | 81.9 µM | 35.3 µM | 47.5 µM | 56.6 µM | 37.7 µM | – | – | – | – | – | – | – | – | – | – |
| C=Cc1cnc([N+](=O)[O-])n1C | > 100 µM | > 100 µM | > 100 µM | > 100 µM | > 100 µM | > 100 µM | 98.7 µM | > 100 µM | > 100 µM | > 100 µM | – | – | – | – | – | – | – | – | – | – |
| COc1cc2c3c(c1OC)Oc1ccc(cc1)CC1c4c(cc(OC)c(OC)c4Oc4ccc(cc4)CC3N(C)CC2)CCN1C (stereo not given) | 70.4 µM | 34.5 µM | 31.7 µM | > 100 µM | 44.7 µM | 70.4 µM | 34 µM | 26.4 µM | 30.4 µM | 28.6 µM | – | – | – | – | – | – | – | – | – | – |
| N[C@H](C(=O)O)[C@@H](Cl)CC(=O)O | > 100 µM | > 100 µM | > 100 µM | > 100 µM | > 100 µM | > 100 µM | > 100 µM | > 100 µM | > 100 µM | > 100 µM | – | – | – | – | – | – | – | – | – | – |
| Cc1nn2c(/C=C3\C(=O)Nc4ccccc43)c(C)nc2s1 | > 100 µM | > 100 µM | > 100 µM | > 100 µM | > 100 µM | > 100 µM | > 100 µM | 63.4 µM | > 100 µM | > 100 µM | 49 µM | > 100 µM | 16.5 µM | 6.4 µM | 35.6 µM | 32.7 µM | 31.3 µM | 5.33 µM | 8.87 µM | > 100 µM |
| CNC(C)Cc1ccc(O)cc1 (stereo not given) | > 100 µM | > 100 µM | > 100 µM | > 100 µM | > 100 µM | > 100 µM | > 100 µM | > 100 µM | > 100 µM | > 100 µM | – | – | – | – | – | – | – | – | – | – |
| CCC(=O)OC1=CN2C(=NC(c3ccc(N)cc3)=CC2c2cc(OC)c(OC)c(OC)c2)S1 (stereo not given) | 10 µM | 16.3 µM | 12 µM | 11.7 µM | 5.56 µM | 26 µM | 20.8 µM | 10.7 µM | 10.7 µM | 19.9 µM | 2.44 µM | 4 µM | 2.89 µM | 3.48 µM | 2.47 µM | 3.22 µM | 5.3 µM | 3.72 µM | 2.89 µM | 5.96 µM |
| O=C(O)c1cc2c(c3ccsc13)-c1ccccc1CC2 | > 100 µM | 59.6 µM | > 100 µM | > 100 µM | > 100 µM | > 100 µM | 61.8 µM | > 100 µM | > 100 µM | > 100 µM | 43.4 µM | 18.8 µM | 31.3 µM | 34.3 µM | 28.8 µM | 36.1 µM | 19.2 µM | 40.5 µM | 40.2 µM | 53.4 µM |
| COc1ccc(/C=C/c2cnc3ccccc3n2)cc1OC | > 100 µM | > 100 µM | > 100 µM | > 100 µM | > 100 µM | > 100 µM | > 100 µM | > 100 µM | > 100 µM | > 100 µM | – | – | – | – | – | – | – | – | – | – |
| Cc1ccc(C)c2c1CCc1cc3ccccc3nc1-2 | > 100 µM | > 100 µM | > 100 µM | > 100 µM | > 100 µM | > 100 µM | > 100 µM | > 100 µM | > 100 µM | > 100 µM | – | – | – | – | – | – | – | – | – | – |
